Data taken from patent US20140128339A1, “2'-METHYL SUBSTITUTED NUCLEOSIDE DERIVATIVES AND METHODS OF USE THEREOF FOR THE TREATMENT OF VIRAL DISEASES” (priority 2012, published 2014).

How the values were obtained:
[1] = tested on: replicon cells (1b-Con1); test: microbe, parasite or virus in culture; type: cell-based, HCV; details: Hepatitis C virus, 72 h; 1b-Con1 replicon cells, three days post-dosing, Taqman RT-PCR with GAPDH RNA as control
[2] = tested on: replicon cells; details: CC50, MTS assay three days post dosing in replicon cells
[3] = target: T1, HCV NS5B RNA-dependent RNA polymerase (1b-BKΔ55) (Hepatitis C virus genotype 1b, UniProt P26663); test: Inhibition of HCV NS5B polymerase by nucleoside triphosphate analogs (radiolabeled nucleotide incorporation assay); type: biochemical
T1 construct: 5 nM NS5B (1b-BKΔ55) enzyme
T1 sequence (P26663 2420-2955, stated change not applied): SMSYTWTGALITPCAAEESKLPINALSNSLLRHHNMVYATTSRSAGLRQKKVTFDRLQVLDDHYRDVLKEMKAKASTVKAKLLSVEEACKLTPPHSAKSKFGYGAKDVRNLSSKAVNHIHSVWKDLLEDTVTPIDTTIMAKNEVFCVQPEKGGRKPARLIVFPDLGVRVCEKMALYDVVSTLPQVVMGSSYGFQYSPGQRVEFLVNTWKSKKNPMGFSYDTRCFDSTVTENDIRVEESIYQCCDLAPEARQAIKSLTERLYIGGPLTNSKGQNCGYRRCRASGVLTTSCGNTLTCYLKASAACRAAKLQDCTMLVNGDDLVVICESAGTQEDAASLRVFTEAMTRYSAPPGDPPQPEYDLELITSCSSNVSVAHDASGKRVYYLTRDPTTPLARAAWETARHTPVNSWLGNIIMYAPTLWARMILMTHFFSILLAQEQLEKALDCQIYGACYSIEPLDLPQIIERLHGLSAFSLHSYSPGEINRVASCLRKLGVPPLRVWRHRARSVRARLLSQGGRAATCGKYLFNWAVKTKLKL
Description: To measure inhibition of the enzymatic activity of the HCV NS5B RNA-dependent RNA polymerase by the nucleoside triphosphate compounds of the present invention, a radiolabeled nucleotide incorporation assay was used. This assay is a modified version of the assay described in International Publication No. WO2002/057287. Briefly, 50 μL reactions containing 20 mM HEPES (pH 7.3); 7.5 mM DTT; 20 units/ml RNasIN; 1 μM each of ATP, GTP, UTP and CTP; 20 μCi/mL [^33P]-CTP; 10 mM MgCl; 60 mM NaCl; 100 μg/ml BSA; […] heteropolymer RNA template; and 5 nM NS5B (1b-BKΔ55) enzyme are incubated at room temperature for 1 hour. The assay is then terminated by the addition of 500 mM EDTA (50 μl). The reaction mixture is transferred to a Millipore DE81 filter plate and the incorporation of labeled CTP is determined using Packard TopCount. Compound IC50 values can then be calculated from experiments with 10 serial 3-fold dilutions of the inhibitor in duplicate.
Data was obtained using this method for the NTP analogs of selected compounds below of the present invention, and is set forth below. […] Data is also presented for comparative compounds, labeled as Compound B and Compound C.

With CC(C)OC(=O)[C@H](C)N[P@@](=O)(OC[C@H]1OC(n2ccc(N)nc2=O)[C@](C)(C#N)[C@@H]1OC(=O)C(C)C)Oc1ccccc1 (some centres unmarked) [Compound 7] the EC50 [1] was 0.425 µM and the Cytotoxicity [2] was greater than 100 µM.
CCCCCCCCCCCCCCCCCC(=O)O[C@@H]1[C@@H](CO[P@](=O)(N[C@@H](C)C(=O)OC(C)C)Oc2ccccc2)OC(n2ccc(N)nc2=O)[C@]1(C)C#N (some centres unmarked) [Compound 8] gave an EC50 [1] of 5.09 µM and a Cytotoxicity [2] of 6.54 µM.
In the case of CC(C)OC(=O)[C@H](C)N[P@@](=O)(OC[C@H]1OC(n2ccc(NC(=O)C(C)C)nc2=O)[C@](C)(C#N)[C@@H]1O)Oc1ccccc1 (some centres unmarked) [Compound 10], the EC50 [1] is reported as 9.5 µM and the Cytotoxicity [2] is reported as 10 µM.
For CCCCCCCCCCCCCCCCCC(=O)Nc1ccn(C2O[C@H](CO[P@](=O)(N[C@@H](C)C(=O)OC(C)C)Oc3ccccc3)[C@@H](O)[C@@]2(C)C#N)c(=O)n1 (some centres unmarked) [Compound 11], the EC50 [1] was 1.8 µM and the Cytotoxicity [2] was 25 µM.
Work on CC(C)OC(=O)[C@H](C)NP(=O)(OC[C@H]1O[C@@H](n2ccc(NC(=O)C(C)C)nc2=O)[C@](C)(C#N)[C@@H]1OC(=O)C(C)C)Oc1ccccc1 (some centres unmarked) [Compound 12] yielded an EC50 [1] of 10 µM and a Cytotoxicity [2] of 76 µM.
CCCCCCCCCCCCCCCCCC(=O)Nc1ccn(C2O[C@H](CO[P@](=O)(N[C@@H](C)C(=O)OC(C)C)Oc3ccccc3)[C@@H](OC(=O)CCCCCCCCCCCCCCCCC)[C@@]2(C)C#N)c(=O)n1 (some centres unmarked) [Compound 13] was tested, and the EC50 [1] was greater than 100 µM and the Cytotoxicity [2] was greater than 100 µM.
Compound CC(C)OC(=O)[C@H](C)NP(=O)(OC[C@H]1O[C@@H](n2ccc(N)nc2=O)[C@](C)(N=[N+]=[N-])[C@@H]1OC(=O)C(C)C)Oc1ccccc1 (some centres unmarked) [Compound 15] has an EC50 [1] of 0.6 µM and a Cytotoxicity [2] greater than 100 µM.
CCCC(CCC)C(=O)O[C@@H]1[C@@H](COP(=O)(N[C@@H](C)C(=O)OC(C)C)Oc2ccccc2)O[C@@H](n2ccc(N)nc2=O)[C@]1(C)N=[N+]=[N-] (some centres unmarked) [Compound 16] showed an EC50 [1] of 0.1 µM and a Cytotoxicity [2] of 13 µM.
Work on CCCCCCCCCCCCCCCCCC(=O)O[C@@H]1[C@@H](COP(=O)(N[C@@H](C)C(=O)OC(C)C)Oc2ccccc2)O[C@@H](n2ccc(N)nc2=O)[C@]1(C)N=[N+]=[N-] (some centres unmarked) [Compound 17] yielded an EC50 [1] of 8.2 µM and a Cytotoxicity [2] of 9.9 µM.
CC(C)OC(=O)[C@H](C)NP(=O)(OC[C@H]1O[C@@H](n2ccc(NC(=O)C(C)C)nc2=O)[C@](C)(N=[N+]=[N-])[C@@H]1OC(=O)C(C)C)Oc1ccccc1 (some centres unmarked) [Compound 18] was tested, and the EC50 [1] was 15 µM and the Cytotoxicity [2] was greater than 100 µM.
For CC(C)OC(=O)[C@H](C)NP(=O)(OC[C@H]1O[C@@H](n2ccc(NC(=O)C(C)C)nc2=O)[C@](C)(N=[N+]=[N-])[C@@H]1O)Oc1ccccc1 (some centres unmarked) [Compound 19], the EC50 [1] was 8.5 µM and the Cytotoxicity [2] was greater than 100 µM.
In the case of CCCCCCCCCCCCCCCCCC(=O)Nc1ccn([C@@H]2O[C@H](COP(=O)(N[C@@H](C)C(=O)OC(C)C)Oc3ccccc3)[C@@H](O)[C@@]2(C)N=[N+]=[N-])c(=O)n1 (some centres unmarked) [Compound 20], the EC50 [1] is reported as 3.6 µM and the Cytotoxicity [2] is reported as greater than 100 µM.
For CC(C)OC(=O)[C@H](C)NP(=O)(OC[C@H]1O[C@@H](n2ccc(=O)[nH]c2=O)[C@](C)(C#N)[C@@H]1OC(=O)C(C)C)Oc1ccccc1 (some centres unmarked) [Compound 23], the EC50 [1] was 0.7 µM and the Cytotoxicity [2] was greater than 100 µM.
CC(C)OC(=O)[C@H](C)NP(=O)(OC[C@H]1O[C@@H](n2ccc(=O)[nH]c2=O)[C@](C)(C#N)[C@@H]1OC(=O)C1CC1)Oc1ccccc1 (some centres unmarked) [Compound 24] was tested, and the EC50 [1] was 6.3 µM and the Cytotoxicity [2] was greater than 100 µM.
In the case of CC(C)OC(=O)[C@H](C)NP(=O)(OC[C@H]1O[C@@H](n2ccc(=O)[nH]c2=O)[C@](C)(C#N)[C@@H]1OC(=O)C1CCC1)Oc1ccccc1 (some centres unmarked) [Compound 25], the EC50 [1] is reported as 0.7 µM and the Cytotoxicity [2] is reported as greater than 100 µM.
Work on CC(C)OC(=O)O[C@@H]1[C@@H](COP(=O)(N[C@@H](C)C(=O)OC(C)C)Oc2ccccc2)O[C@@H](n2ccc(=O)[nH]c2=O)[C@]1(C)C#N (some centres unmarked) [Compound 26] yielded an EC50 [1] of 1 µM and a Cytotoxicity [2] greater than 100 µM.
CC(C)NC(=O)O[C@@H]1[C@@H](COP(=O)(N[C@@H](C)C(=O)OC(C)C)Oc2ccccc2)O[C@@H](n2ccc(=O)[nH]c2=O)[C@]1(C)C#N (some centres unmarked) [Compound 27] gave an EC50 [1] greater than 100 µM and a Cytotoxicity [2] greater than 100 µM.
CCCCC(=O)O[C@@H]1[C@@H](COP(=O)(N[C@@H](C)C(=O)OC(C)C)Oc2ccccc2)O[C@@H](n2ccc(=O)[nH]c2=O)[C@]1(C)C#N (some centres unmarked) [Compound 28] showed an EC50 [1] of 0.7 µM and a Cytotoxicity [2] of 76 µM.
With CCCC(CCC)C(=O)O[C@@H]1[C@@H](COP(=O)(N[C@@H](C)C(=O)OC(C)C)Oc2ccccc2)O[C@@H](n2ccc(=O)[nH]c2=O)[C@]1(C)C#N (some centres unmarked) [Compound 29] the EC50 [1] was 0.19 µM and the Cytotoxicity [2] was 20 µM.
C[C@@]1(N)[C@H](O)[C@@H](COP(=O)(O)OP(=O)(O)OP(=O)(O)O)O[C@H]1n1ccc(N)nc1=O [Compound 34] showed a Ki [3] of 0.05 µM.
With C[C@@]1(N)[C@H](O)[C@@H](COP(=O)(O)OP(=O)(O)OP(=O)(O)O)O[C@H]1n1ccc(=O)[nH]c1=O [Compound 35] the Ki [3] was 4.7 µM.
C#C[C@]1(C)[C@H](O)[C@@H](COP(=O)(O)OP(=O)(O)OP(=O)(O)O)O[C@H]1n1ccc(=O)[nH]c1=O [Compound 36] was tested, and the Ki [3] was 11 µM.
